{
  "source": "patent US7776893B2",
  "about": "“Use of PDE4 inhibitors for the treatment of diabetes mellitus” (NYCOMED GmbH, priority 2003, dated 2010)",
  "assay_type_in_all_cases": "in vivo",
  "key": {"C57BLKS db/db mice [1]": {"test_system": "C57BLKS db/db mice", "test": "10 days study: oral glucose tolerance, blood glucose 15 minutes after glucose application", "conditions": "fasted 24 h, 15 minutes after 1 g/kg oral glucose", "description": "(§1) Female C57BLKS db/db mice obtained from M&B A/S (8680 Ry, Denmark) were used In the studies at 10 to 11 weeks of age. Mice were housed 10 per cage and allowed free access to water and chow (chow 3433, Provimi Kliba SA, 4303 Kaiseraugst, Switzerland).\n(§2) Mice were allowed to acclimate to the local animal facilities for 1 week and retro-orbital blood samples were obtained 3 to 7 days prior to the start of the study.\n(§3) Mice were treated with vehicle or a selected PDE4 inhibitor compound once daily in the morning. The selective PDE4 inhibitor compounds to be tested were suspended in 4% methocel and applied via oral gavage using oral feeding & dosing needles (outer diameter: 1.5 mm, TSE GmbH, 61350 Bad Homburg, Germany). A volume of 10 ml/kg body weight was administered for each dose.\n(§4) 10 days studies: Mice were treated with vehicle or a selected PDE4 inhibitor compound once daily in the morning. On day 9, mice were fasted for 24 hours by removing chow 1 hour after drug application. On day 10, glucose tolerance was assessed by oral application of 1 g/kg/10 ml glucose. Blood was sampled 15 minutes after glucose application and levels of glucose (accu-chek, Roche Diagnostics GmbH, 68298 Mannheim, Germany) were measured."}, "C57BLKS db/db mice [2]": {"test_system": "C57BLKS db/db mice", "test": "56 days study: lactate levels, fasting and after glucose application", "conditions": "for Lactate 15 min after glucose application: 1 g/kg oral glucose; for Lactate fasting: serum, fasted 24 h", "description": "as §1, §2, §3\nas §4, with “56 days” for “10 days”, “day 55,” for “day 9,”, “day 56, fasting blood glucose levels were measured and” for “day 10,”, “Germany) and lactate (lactate reagent, Sigma-Aldrich GmbH, 82039 Deisenhofen, Germany)” for “Germany)”"}, "C57BLKS db/db mice [3]": {"test_system": "C57BLKS db/db mice", "test": "56 days study: fasting blood glucose and oral glucose tolerance", "conditions": "for Blood glucose 15 min after glucose application: 1 g/kg oral glucose; for Blood glucose fasting: fasted 24 h", "description": "as §1, §2, §3\nas §4, with “56 days” for “10 days”, “day 55,” for “day 9,”, “day 56, fasting blood glucose levels were measured and” for “day 10,”, “Germany) and lactate (lactate reagent, Sigma-Aldrich GmbH, 82039 Deisenhofen, Germany)” for “Germany)”"}},
  "data": [
    {"smiles": "COc1cc2c(cc1OC)[C@@H]1CCCC[C@@H]1N=C2c1ccc(OCC2CC2)c(OCC2CC2)c1", "note": "[COMPOUND A, (−)-cis-8,9-Dimethoxy-6-[3,4-bis-(cyclopropylmethoxy)phenyl]-1,2,3,4,4a,10b-hexahydrophenanthridine]", "values": [
      {"measurement": "Blood glucose", "setting": "C57BLKS db/db mice [1]; 3 mg/kg oral once daily", "value": 507, "unit": "mg/dL"},
      {"measurement": "Blood glucose", "setting": "C57BLKS db/db mice [1]; 30 mg/kg oral once daily", "value": 411.5, "unit": "mg/dL"},
      {"measurement": "Lactate 15 min after glucose application", "setting": "C57BLKS db/db mice [2]; 3 mg/kg oral once daily", "value": 70, "unit": "mg/dL"},
      {"measurement": "Lactate 15 min after glucose application", "setting": "C57BLKS db/db mice [2]; 30 mg/kg oral once daily", "value": 61, "unit": "mg/dL"},
      {"measurement": "Lactate fasting", "setting": "C57BLKS db/db mice [2]; 3 mg/kg oral once daily", "value": 49, "unit": "mg/dL"},
      {"measurement": "Lactate fasting", "setting": "C57BLKS db/db mice [2]; 30 mg/kg oral once daily", "value": 43, "unit": "mg/dL"},
      {"measurement": "Blood glucose 15 min after glucose application", "setting": "C57BLKS db/db mice [3]; 3 mg/kg oral once daily", "value": 580, "unit": "mg/dL"},
      {"measurement": "Blood glucose fasting", "setting": "C57BLKS db/db mice [3]; 3 mg/kg oral once daily", "value": 279, "unit": "mg/dL"},
      {"measurement": "Blood glucose 15 min after glucose application", "setting": "C57BLKS db/db mice [3]; 30 mg/kg oral once daily", "value": 352, "unit": "mg/dL"},
      {"measurement": "Blood glucose fasting", "setting": "C57BLKS db/db mice [3]; 30 mg/kg oral once daily", "value": 193, "unit": "mg/dL"}
    ]},
    {"smiles": "COc1cc2c(cc1OC)[C@@H]1CCCC[C@@H]1N=C2c1ccc(C(=O)c2ccccc2)cc1", "note": "[COMPOUND B, (−)-cis-8,9-Dimethoxy-6-(4-benzoylphenyl)-1,2,3,4,4a,10b-hexahydrophenanthridine]", "values": [
      {"measurement": "Blood glucose", "setting": "C57BLKS db/db mice [1]; 3 mg/kg oral once daily", "value": 362, "unit": "mg/dL"},
      {"measurement": "Blood glucose", "setting": "C57BLKS db/db mice [1]; 30 mg/kg oral once daily", "value": 251, "unit": "mg/dL"}
    ]},
    {"smiles": "COc1cc2c(cc1OC)[C@@H]1CCCC[C@@H]1N=C2c1ccc(C(=O)O)cc1.Cl", "note": "[COMPOUND C, (+)-cis-8,9-Dimethoxy-6-(4-carboxyphenyl)-1,2,3,4,4a,10b-hexahydrophenanthridine Hydrochloride]", "values": [
      {"measurement": "Blood glucose", "setting": "C57BLKS db/db mice [1]; 3 mg/kg oral once daily", "value": 506, "unit": "mg/dL"},
      {"measurement": "Blood glucose", "setting": "C57BLKS db/db mice [1]; 30 mg/kg oral once daily", "value": 449, "unit": "mg/dL"}
    ]},
    {"smiles": "CCn1nnc(-c2ccc(C3=N[C@H]4CCCC[C@H]4c4cc(OC)c(OC)cc43)cc2)n1", "note": "[COMPOUND D, (−)-cis-6-[4-(2-Ethyl-2H-tetrazol-5-yl)-phenyl]-8,9-dimethoxy-1,2,3,4,4a,10b-hexahydrophenanthridine]", "values": [
      {"measurement": "Blood glucose", "setting": "C57BLKS db/db mice [1]; 3 mg/kg oral once daily", "value": 437, "unit": "mg/dL"},
      {"measurement": "Blood glucose", "setting": "C57BLKS db/db mice [1]; 30 mg/kg oral once daily", "value": 285, "unit": "mg/dL"}
    ]}
  ]
}
